Patent US8822462B2, “Subunit selective NMDA receptor potentiators for the treatment of neurological conditions” (Emory University, priority 2009, dated 2014)

Legend:
[1] = system: native NMDA receptor responses in subthalamic neurons; assay: Patch clamp recording from slices of subthalamic nuclei, pressure-applied NMDA/glycine; assay type: cell-based
NR1/NR2C [2] = biological target: T1, NR1/NR2C (Homo sapiens, UniProt Q05586+Q14957); assay: Two electrode voltage clamp, Xenopus laevis oocytes expressing NR1/NR2C; assay type: cell-based; details: for IC50: fitted to composite concentration-effect data, read-out: 2C IC50; for Emax: maximal effect of fit, read-out: 2C Max; for activity at 100 µM: read-out: 2C percent effect at the maximum tested concentration
T1 construct: expressed in transfected cells; host or cells: Xenopus laevis oocytes
Source text: (§1) Values are mean+SEM (n=14-20). […] C is the closed level; broken line is the open level.
(§2) The Hill slope at both receptors for all analogues was greater than 1, consistent with a cooperative effect of binding at two sites.
(§3) In the table above, potency is expressed as fitted EC50 value to average composite concentration-effect data constructed from current responses recorded under two electrode voltage clamp from Xenopus laevis oocytes expressing either NR1/NR2A, B, C, or D, GluR1, or GluR6. No effect means less than 20% change in response amplitude at 30 μM of drug.

NR1/NR2C [3] = biological target: T2, NR1/NR2C (Homo sapiens, UniProt Q14957); assay: as above; assay type: cell-based
T2 construct: expressed in transfected cells; host or cells: Xenopus laevis oocytes
Source text: as §1, §2, §3

NR1/NR2B = biological target: T3, NR1/NR2B (Homo sapiens, UniProt Q05586+Q13224); assay: Two electrode voltage clamp, Xenopus laevis oocytes expressing NR1/NR2B; assay type: cell-based; details: for activity at 100 µM: read-out: 2B percent effect at the maximum tested concentration; for IC50: fitted to composite concentration-effect data, Max 0 = inhibition, read-out: 2B IC50
T3 construct: expressed in transfected cells; host or cells: Xenopus laevis oocytes
Procedure: as §3

NR1/NR2D [4] = biological target: T4, NR1/NR2D (Homo sapiens, UniProt O15399); assay: Single channel currents in excised outside-out patches; assay type: cell-based; parameters: expressed in transfected cells
Source text: as §1
Target sequence in this assay (O15399 28-1336, other chains not shown): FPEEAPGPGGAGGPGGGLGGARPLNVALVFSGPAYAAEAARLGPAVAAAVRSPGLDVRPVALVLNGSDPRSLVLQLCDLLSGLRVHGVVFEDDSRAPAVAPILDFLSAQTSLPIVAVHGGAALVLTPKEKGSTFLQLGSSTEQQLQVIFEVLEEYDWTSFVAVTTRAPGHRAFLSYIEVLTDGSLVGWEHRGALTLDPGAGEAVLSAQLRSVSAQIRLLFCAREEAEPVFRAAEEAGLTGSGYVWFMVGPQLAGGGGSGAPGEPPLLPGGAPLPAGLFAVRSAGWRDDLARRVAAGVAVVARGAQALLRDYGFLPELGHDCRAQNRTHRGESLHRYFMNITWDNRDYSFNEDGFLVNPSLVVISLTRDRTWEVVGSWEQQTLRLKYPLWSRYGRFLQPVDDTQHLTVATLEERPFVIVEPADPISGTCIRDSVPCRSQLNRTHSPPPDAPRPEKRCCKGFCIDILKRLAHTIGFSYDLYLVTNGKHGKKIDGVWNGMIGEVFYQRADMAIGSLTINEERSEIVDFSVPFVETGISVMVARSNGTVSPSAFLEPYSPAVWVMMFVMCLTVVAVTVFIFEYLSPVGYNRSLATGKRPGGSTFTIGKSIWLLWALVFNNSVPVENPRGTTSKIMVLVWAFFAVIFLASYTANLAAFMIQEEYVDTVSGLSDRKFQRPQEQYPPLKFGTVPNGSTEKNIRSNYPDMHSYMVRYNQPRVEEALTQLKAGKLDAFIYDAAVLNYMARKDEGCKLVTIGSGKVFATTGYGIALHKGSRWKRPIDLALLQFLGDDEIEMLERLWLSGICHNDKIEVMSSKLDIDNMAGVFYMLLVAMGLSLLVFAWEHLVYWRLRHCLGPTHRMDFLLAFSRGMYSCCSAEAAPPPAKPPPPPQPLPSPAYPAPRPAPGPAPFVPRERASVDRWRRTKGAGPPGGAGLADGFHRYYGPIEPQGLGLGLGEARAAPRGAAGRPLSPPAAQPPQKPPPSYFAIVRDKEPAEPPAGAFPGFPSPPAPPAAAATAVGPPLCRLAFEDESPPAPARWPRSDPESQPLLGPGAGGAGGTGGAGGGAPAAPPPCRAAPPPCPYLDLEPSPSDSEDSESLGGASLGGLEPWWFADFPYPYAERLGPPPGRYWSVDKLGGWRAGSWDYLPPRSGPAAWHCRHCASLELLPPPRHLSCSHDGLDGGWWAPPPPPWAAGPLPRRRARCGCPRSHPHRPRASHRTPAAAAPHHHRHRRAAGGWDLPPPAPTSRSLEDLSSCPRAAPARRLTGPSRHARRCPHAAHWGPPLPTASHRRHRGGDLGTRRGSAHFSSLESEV
Our initial studies varying the compound structure confirm that there are strict requirements for the position and type of substituent on the isoquinoline backbone (see Table 3).

[5] = system: recombinant NMDA receptors; assay: Voltage and pH dependence of potentiation of recombinant NMDA receptors; assay type: cell-based
Source text: FIG. 2A illustrates the subunit-selectivity with which the compounds of Formula A, including a specific compound herein referred to as DIQ-1180, acts on recombinant NMDA receptors. The structure of DIQ-1180 is shown below.
as §2

NR1/NR2A = biological target: T5, NR1/NR2A (Homo sapiens, UniProt Q12879); assay: Two electrode voltage clamp, Xenopus laevis oocytes expressing NR1/NR2A; assay type: cell-based; details: at 100 μM; read-out: 2A percent effect at the maximum tested concentration
T5 construct: expressed in transfected cells; host or cells: Xenopus laevis oocytes
Procedure: as §3

NR1/NR2D [6] = biological target: NR1/NR2D (Homo sapiens, UniProt O15399+Q05586); assay: Two electrode voltage clamp, Xenopus laevis oocytes expressing NR1/NR2D; details: for Emax: read-out: 2D Max; for activity at 100 µM: read-out: 2D percent effect at the maximum tested concentration, at 100 μM
NR1/NR2D [7] = biological target: T4, NR1/NR2D; assay: as above
Target sequence in this assay (O15399 28-1336, species assumed, other chains not shown): as the sequence (O15399 28-1336, other chains not shown) above

T5 sequence (Q12879 23-1464, species assumed, other chains not shown): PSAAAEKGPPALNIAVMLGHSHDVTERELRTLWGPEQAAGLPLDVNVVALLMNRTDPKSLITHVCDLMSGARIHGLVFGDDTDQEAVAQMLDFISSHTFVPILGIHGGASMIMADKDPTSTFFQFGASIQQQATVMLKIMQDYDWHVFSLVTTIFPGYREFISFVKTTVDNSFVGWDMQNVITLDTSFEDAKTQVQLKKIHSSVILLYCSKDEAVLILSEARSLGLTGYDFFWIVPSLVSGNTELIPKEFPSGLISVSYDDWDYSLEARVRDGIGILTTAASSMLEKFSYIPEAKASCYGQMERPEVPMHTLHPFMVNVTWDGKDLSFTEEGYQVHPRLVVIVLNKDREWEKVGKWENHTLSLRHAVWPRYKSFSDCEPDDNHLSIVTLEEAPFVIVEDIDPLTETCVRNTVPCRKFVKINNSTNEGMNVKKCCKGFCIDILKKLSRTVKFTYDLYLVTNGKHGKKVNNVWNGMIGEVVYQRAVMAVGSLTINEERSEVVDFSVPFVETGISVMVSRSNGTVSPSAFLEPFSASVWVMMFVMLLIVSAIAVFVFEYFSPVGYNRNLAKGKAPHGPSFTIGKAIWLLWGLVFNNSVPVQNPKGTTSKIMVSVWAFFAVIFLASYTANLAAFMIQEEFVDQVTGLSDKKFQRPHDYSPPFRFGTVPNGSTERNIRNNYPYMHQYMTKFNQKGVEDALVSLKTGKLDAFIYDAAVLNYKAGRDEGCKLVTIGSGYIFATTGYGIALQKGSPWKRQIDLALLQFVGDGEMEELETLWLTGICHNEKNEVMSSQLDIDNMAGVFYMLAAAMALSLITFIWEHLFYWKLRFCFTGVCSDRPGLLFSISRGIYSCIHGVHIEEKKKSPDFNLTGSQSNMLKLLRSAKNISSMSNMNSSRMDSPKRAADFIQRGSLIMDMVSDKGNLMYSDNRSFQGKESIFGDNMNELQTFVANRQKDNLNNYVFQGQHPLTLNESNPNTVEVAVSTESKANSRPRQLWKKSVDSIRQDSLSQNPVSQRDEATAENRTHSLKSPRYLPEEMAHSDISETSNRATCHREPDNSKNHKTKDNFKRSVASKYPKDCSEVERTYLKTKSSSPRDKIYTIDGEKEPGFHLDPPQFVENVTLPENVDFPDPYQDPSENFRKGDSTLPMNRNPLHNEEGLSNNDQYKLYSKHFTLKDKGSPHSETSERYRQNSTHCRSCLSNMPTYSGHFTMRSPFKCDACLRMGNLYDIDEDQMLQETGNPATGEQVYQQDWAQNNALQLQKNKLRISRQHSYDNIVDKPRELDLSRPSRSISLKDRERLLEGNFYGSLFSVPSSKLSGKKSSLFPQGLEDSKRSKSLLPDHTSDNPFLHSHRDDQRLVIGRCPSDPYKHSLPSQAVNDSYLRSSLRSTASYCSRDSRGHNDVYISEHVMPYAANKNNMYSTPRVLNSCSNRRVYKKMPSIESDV
T3 sequence (Q13224 27-1484, species assumed, other chains not shown): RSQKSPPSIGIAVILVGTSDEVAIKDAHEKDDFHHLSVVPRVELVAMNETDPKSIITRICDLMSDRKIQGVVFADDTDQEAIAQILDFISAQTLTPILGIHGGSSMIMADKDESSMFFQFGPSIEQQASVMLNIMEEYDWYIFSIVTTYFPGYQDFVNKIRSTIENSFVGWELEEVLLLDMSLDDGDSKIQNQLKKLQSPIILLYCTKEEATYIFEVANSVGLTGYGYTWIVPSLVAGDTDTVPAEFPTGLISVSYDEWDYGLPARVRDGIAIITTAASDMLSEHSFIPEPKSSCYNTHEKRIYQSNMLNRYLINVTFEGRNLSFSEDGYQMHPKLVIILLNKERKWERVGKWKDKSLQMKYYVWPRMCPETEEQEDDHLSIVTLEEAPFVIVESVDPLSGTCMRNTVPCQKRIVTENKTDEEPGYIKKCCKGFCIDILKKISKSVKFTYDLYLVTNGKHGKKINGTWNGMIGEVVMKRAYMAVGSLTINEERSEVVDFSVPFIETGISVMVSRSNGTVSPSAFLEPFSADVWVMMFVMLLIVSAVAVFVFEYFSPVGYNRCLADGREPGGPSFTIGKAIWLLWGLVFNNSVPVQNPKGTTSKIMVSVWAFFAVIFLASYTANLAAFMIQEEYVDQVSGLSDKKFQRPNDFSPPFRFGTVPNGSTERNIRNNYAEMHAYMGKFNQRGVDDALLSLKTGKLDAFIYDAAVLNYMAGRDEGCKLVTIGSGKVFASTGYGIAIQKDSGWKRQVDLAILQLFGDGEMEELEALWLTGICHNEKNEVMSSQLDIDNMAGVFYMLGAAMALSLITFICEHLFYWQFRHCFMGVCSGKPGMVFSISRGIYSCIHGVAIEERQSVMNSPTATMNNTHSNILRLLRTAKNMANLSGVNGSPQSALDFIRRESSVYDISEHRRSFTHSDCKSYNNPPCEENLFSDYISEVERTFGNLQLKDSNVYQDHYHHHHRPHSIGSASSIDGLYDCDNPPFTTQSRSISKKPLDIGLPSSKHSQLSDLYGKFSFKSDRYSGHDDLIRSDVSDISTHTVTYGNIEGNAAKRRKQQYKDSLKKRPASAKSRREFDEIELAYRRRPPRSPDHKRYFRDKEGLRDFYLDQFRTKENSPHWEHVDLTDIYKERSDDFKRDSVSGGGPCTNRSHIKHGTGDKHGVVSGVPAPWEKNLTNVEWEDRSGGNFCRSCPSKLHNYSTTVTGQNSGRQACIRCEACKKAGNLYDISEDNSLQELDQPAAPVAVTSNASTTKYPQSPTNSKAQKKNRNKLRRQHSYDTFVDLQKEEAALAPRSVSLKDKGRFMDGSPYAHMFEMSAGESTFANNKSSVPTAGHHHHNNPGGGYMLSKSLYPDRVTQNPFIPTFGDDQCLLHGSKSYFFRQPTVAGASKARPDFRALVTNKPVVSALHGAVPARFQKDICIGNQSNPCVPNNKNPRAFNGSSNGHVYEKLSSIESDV
NR1/NR2D (Homo sapiens, UniProt O15399+Q05586), sequence (O15399 28-1336, species assumed, other chains not shown): as the sequence (O15399 28-1336, other chains not shown) above

Structure (SMILES) | activity at 100 µM (NR1/NR2B) [%] | activity at 100 µM (NR1/NR2A) [%] | activity at 100 µM (NR1/NR2C [2]) [%] | activity at 100 µM (NR1/NR2D [6]) [%] | other results
NC(CCCP(=O)(O)O)C(=O)O (racemic) [DL-APV, reference compound] | – | – | – | – | current response to pressure-applied NMDA/glycine ([1]; 100 μM): blocked
COc1ccc(OCC2c3cc(OC)c(OC)cc3CCN2C(=O)c2ccccc2)cc1 (centres unmarked) [compound 1180] | 67 | 81 | – | – | current response to pressure-applied NMDA/glycine ([1]; 30 μM, listed as DIQ-1180): potentiated; EC50 (NR1/NR2C [2]; Example 1, read-out: EC50 value for potentiation of NR2C-containing receptors): 11 µM; IC50 (NR1/NR2C [2]): 12 µM; Emax (NR1/NR2C [2]): 145%; maximal potentiation at NR2C-containing receptors (NR1/NR2C [3]; Example 1): 181%; total open probability (nPo) (NR1/NR2D [4]; glutamate/glycine-activated unitary currents, increased from 0.083 without compound): 0.207; opening frequency of recombinant NR1/NR2D single channel currents (NR1/NR2D [4]; maximally effective glutamate/glycine, FIG. 2B): increased the opening frequency; opening frequency (NR1/NR2D [4]; reversed by washout): 178 % of control; voltage dependence of potentiating actions ([5]; n=7): voltage-independent; pH dependence of potentiating actions ([5]; n=10-16): pH-independent; EC50 (NR1/NR2D [6]): 13 µM; IC50 (NR1/NR2D [6]): 11 µM; Emax (NR1/NR2D [6]): 156%; maximal potentiation at NR2D-containing receptors (NR1/NR2D [7]; Example 1): 162%
CSC1=NCCN1C(=O)c1ccc2ccccc2c1 [compound 1397] | – | – | – | – | 2C percent effect at the maximum tested concentration (NR1/NR2C [3]; at 100 μM): 98% at 100 μM; 2D percent effect at the maximum tested concentration (NR1/NR2D [7]; at 100 μM): 87% at 100 μM
CCN1CC(C(O)Nc2ccc(OC)cc2OC)c2cc(OC)c(OC)cc2C1=O (centres unmarked) [compound 1439] | 96 | 99 | 84 | 89 | –
COc1ccc(NC(O)C2CN(C(C)C)C(=O)c3cc(OC)c(OC)cc32)c(OC)c1 (centres unmarked) [compound 1440] | 90 | 123 | 71 | 82 | –
O=C(O)c1c(NC(=O)c2cccc3ccccc23)sc2c1CCC2 [compound 1441] | – | 81 | 78 | 86 | IC50 (NR1/NR2B): 43 µM
COC(=O)c1ccc(OCC2c3cc(OC)c(OC)cc3CCN2C(=O)c2cccc(Cl)c2)cc1 (centres unmarked) [compound 1444] | 68 | 91 | 102 | 111 | –
CC(C)(C)c1ccc(C(=O)Nc2ccccc2C(=O)O)cc1 [compound 1479] | 97 | 94 | 102 | 113 | –
CC(C)(C)c1ccc(NC(=O)C2CC=CCC2C(=O)O)cc1 (centres unmarked) [compound 1480] | 83 | 92 | 86 | 85 | –
CC1CCc2c(sc(NC(=O)c3ccc(C(C)(C)C)cc3)c2C(=O)O)C1 (centres unmarked) [compound 1481] | 119 | 113 | 97 | – | IC50 (NR1/NR2D [6]): 21 µM; Emax (NR1/NR2D [6]): 124%
CC(C)(C)c1ccc(C(=O)NC2=C(C(=O)O)C3CCCCCC3S2)cc1 (centres unmarked) [compound 1482] | 116 | 97 | – | – | IC50 (NR1/NR2C [2]): 19 µM; Emax (NR1/NR2C [2]): 127%; IC50 (NR1/NR2D [6]): 16 µM; Emax (NR1/NR2D [6]): 170%
COc1ccc(OCC2c3cc(OC)c(OC)cc3CCN2C(=O)c2ccccn2)cc1 (centres unmarked) [compound 1484] | 80 | 100 | 76 | 84 | –
COc1ccc(OCC2c3cc(OC)c(OC)cc3CCN2C(=O)c2cccnc2)cc1 (centres unmarked) [compound 1485] | 85 | 75 | 82 | 74 | –
COc1ccc(OCC2c3cc(OC)c(OC)cc3CCN2C(=O)c2cccs2)cc1 (centres unmarked) [compound 1486] | 88 | 78 | – | – | IC50 (NR1/NR2C [2]): 9 µM; Emax (NR1/NR2C [2]): 131%; IC50 (NR1/NR2D [6]): 6 µM; Emax (NR1/NR2D [6]): 112%
COc1ccc(OCC2c3cc(OC)c(OC)cc3CCN2S(=O)(=O)c2ccccc2)cc1 (centres unmarked) [compound 1487] | 71 | 89 | 69 | 79 | –
CC(C)c1ccc(C(=O)Nc2sccc2C(=O)O)cc1 [compound 1488] | 83 | 98 | 82 | 80 | –
CCc1ccc(C(=O)Nc2sccc2C(=O)O)cc1 [compound 1489] | 78 | 95 | 83 | 76 | –
CC(C)(C)c1ccc(CSc2nc(N)cc(O)n2)cc1 [compound 1563] | – | 91 | – | – | IC50 (NR1/NR2C [2]): 39 µM; Emax (NR1/NR2C [2]): 424%; IC50 (NR1/NR2B): 24 µM; IC50 (NR1/NR2D [6]): 68 µM; Emax (NR1/NR2D [6]): 614%
